Data on twelve molecules can be found in ChEMBL document CHEMBL3875219, “Hetero-Diels-Alder approach to Bis(indolyl)methanes” (Bioorg Med Chem, 2017).

The test system of one data set is U-937. Put plainly: Selectivity index, ratio of IC50 for mouse S17 cells to IC50 for human U937 cells. It counts as functional.
A short description of data set [1]: (§1) Cytotoxicity against mouse S17 cells assessed as reduction in cell viability after 72 hrs by MTT assay. It counts as toxicity, cell-based. Conditions: mouse, S17 cells. (In general: Tetrazolium assays rely on reduction of a dye to a coloured formazan, in cell work by metabolically active cells.)
The nature of data set [2]: Cytotoxicity against mouse EL4 cells assessed as reduction in cell viability after 72 hrs by MTT assay. It counts as functional, cell-based. Conditions: EL4, 72 h.
Data set [3] is described as follows: Cytotoxicity against human U937 cells assessed as cell viability at 100 uM after 72 hrs by MTT assay relative to control. The format is functional. The note with it: U-937, 72 h, read-out: Activity.
The test system of another data set is THP-1. Put plainly: Selectivity index, ratio of IC50 for mouse S17 cells to IC50 for human THP1 cells. It counts as functional.
Another data set deals with EL4. Put plainly: Selectivity index, ratio of IC50 for mouse S17 cells to IC50 for mouse EL4 cells. The format is functional.
A short description of data set [4]: Cytotoxicity against human THP1 cells assessed as reduction in cell viability after 72 hrs by MTT assay. It counts as functional, cell-based. Conditions: THP-1, 72 h.
Data set [5] is described as follows: Cytotoxicity against human U937 cells assessed as reduction in cell viability after 72 hrs by MTT assay. The format is functional, cell-based. The note with it: U-937, 72 h.
Data set [6] in a line: Cytotoxicity against mouse S17 cells assessed as cell viability at 100 uM after 72 hrs by MTT assay relative to control. The format is toxicity. Conditions: read-out: Activity.
For the next data set, the species on record is Mus musculus. Described as §1. The note with it: s17. The format is toxicity, cell-based.

Structures are written as SMILES. Bounds are passed on as bounds.

Usually IC50 stands for the midpoint of a concentration-inhibition curve. Turning to `C/C(=N/NC(=O)OC(C)(C)C)C(c1cn(Cc2ccccc2)c2ccccc12)c1cn(Cc2ccccc2)c2ccccc12`, the “Ratio IC50” value in the data set with U-937 is below 1; in the data set with THP-1, below 1; in the data set on EL4, 1.38. Also, in data set [1], the IC50 at 72 h is 7.65 µM. Moreover, the IC50 in [2] worked out at 5.56 µM; in data set [4], 38.8 µM. In data set [3], the viability at 100 µM stood at 66.6%.

In the case of `O/N=C(/c1ccc(Br)cc1)C(c1c[nH]c2ccc(Br)cc12)c1c[nH]c2ccc(Br)cc12`, the IC50 in [2] was 7.65 µM; in [4], 12.2 µM; in [5] it was 18.6 µM.

As for `C/C(=N/NC(=O)OC(C)(C)C)C(c1c[nH]c2ccc(Br)cc12)c1c[nH]c2ccc(Br)cc12`, the “Ratio IC50” value in the data set on U-937 was 1.46; in the data set on THP-1 it was 1.14; with EL4, 1.84. Further, the IC50 at 72 h in [1] turned out to be 41.3 µM. Moreover, the IC50 in [2] is 22.5 µM; in [4] it was 36.2 µM; in data set [5], 28.3 µM.

For the molecule `C/C(=N/NC(=O)OC(C)(C)C)C(c1c[nH]c2ccc(O)cc12)c1c[nH]c2ccc(O)cc12`, the figures for the “Ratio IC50” value in the data set with U-937, in the data set on THP-1 and in the data set on EL4 were below 1, 3.5 and 6.49, respectively. In data set [6], the viability at 72 h, 100 µM amounted to 48.4%. Further, the IC50 result is “Non-Toxic” in the data set listed under Mus musculus, 15.4 µM in data set [2], 28.6 µM in data set [4] and 157 µM in [5].

Turning to `C/C(=N/NS(=O)(=O)c1ccc(C)cc1)C(c1c[nH]c2ccccc12)c1c[nH]c2ccccc12`, the “Ratio IC50” value in the data set on U-937 is given as 1.09; with THP-1, 1.06; in the data set on EL4, 1.32. Besides, the IC50 at 72 h in data set [1] is 25 µM. The IC50 in [2] was 18.9 µM; in data set [4], 23.5 µM; in data set [5], 22.9 µM.

As to `C/C(=N/NC(=O)OC(C)(C)C)C(c1cn(C)c2ccccc12)c1cn(C)c2ccccc12`, the IC50 came to 9.99 µM in data set [2], 25.3 µM in [4] and 14.2 µM in [5].

On to `Cc1ccc2[nH]cc(C(/C(=N\O)c3ccc(Br)cc3)c3c[nH]c4ccc(C)cc34)c2c1`, for which the results for the “Ratio IC50” value in the data set on U-937, in the data set on THP-1 and in the data set with EL4 were 1.17, 1.81 and 3.56, respectively. The IC50 at 72 h in data set [1] came to 11.5 µM. Also, the IC50 in data set [2] stood at 3.23 µM; in [4] it was 6.34 µM; in [5] it was 9.79 µM.

For `C/C(=N/NC(=O)OC(C)(C)C)C(c1c[nH]c2ccccc12)c1c[nH]c2ccccc12`, the “Ratio IC50” value worked out at 2 in the data set with U-937, 1.67 in the data set on THP-1 and 3.27 with EL4. Further, in [1], the half-inhibitory concentration (IC50) at 72 h came out at 50 µM. Besides, the results for the IC50 in data set [2], in [4] and in data set [5] were 15.3 µM, 30 µM and 25 µM, respectively.

In the case of `COc1ccc2[nH]cc(C(/C(=N\O)c3ccc(Br)cc3)c3c[nH]c4ccc(OC)cc34)c2c1`, the “Ratio IC50” value is listed as below 1 in the data set on U-937, below 1 in the data set with THP-1 and 1.91 in the data set with EL4. The IC50 at 72 h in [1] is 17.7 µM. Further, the results for the IC50 in [2], in data set [4] and in [5] were 9.29 µM, 22.6 µM and 18.1 µM, respectively.

For `C/C(=N/Nc1ccc([N+](=O)[O-])cc1[N+](=O)[O-])C(c1c[nH]c2ccccc12)c1c[nH]c2ccccc12`, the “Ratio IC50” value with U-937 is reported as below 1; with THP-1, below 1; in the data set on EL4, 1.45. Also, the IC50 at 72 h in data set [1] was determined as 7.92 µM. Moreover, the IC50 in data set [2] worked out at 5.45 µM; in [4], 14 µM; in [5] it was 13.3 µM.

Regarding `O/N=C(/c1ccc(Br)cc1)C(c1c[nH]c2ccc(O)cc12)c1c[nH]c2ccc(O)cc12`, the “Ratio IC50” value in the data set on U-937 came out at 1.71; with THP-1, 1.41; in the data set on EL4, 1.4. In addition, the IC50 at 72 h in data set [1] came out at 21.9 µM. For the same molecule, the IC50 in data set [2] was 15.6 µM; in [4] it was 15.5 µM; in data set [5] it was 12.8 µM.

Turning to `COc1cc([C@@H]2c3cc4c(cc3[C@@H](O[C@@H]3O[C@@H]5CO[C@@H](C)O[C@H]5[C@H](O)[C@H]3O)[C@H]3COC(=O)[C@H]23)OCO4)cc(OC)c1O` [ETOPOSIDE], the IC50 at 72 h in data set [1] stood at 10.4 µM. The IC50 in [2] came to 4.9 µM; in data set [4], 1.82 µM; in data set [5] it was 1.1 µM.
